From ChEMBL document CHEMBL1144316, “Synthesis and biological activity evaluation of lignan lactones derived from (-)-cubebin” (2005) come the findings set out here.

SMILES strings stand for the structures.

The test system of the assay is Rattus norvegicus. Kind of assay: Percentage inhibition of edema formation in rat after 3 hours of treatment with the compound at a dosage of 30 mg/Kg. The class given is functional.
In general, inhibition in vivo refers to the change of the read-out against control, counted positive when it falls. `Nc1cc2c(cc1C[C@@H]1COC(=O)[C@H]1Cc1cc3c(cc1N)OCO3)OCO2` had an inhibition in vivo at 30 mg/kg of 82%.

`O=C1OC[C@@H](Cc2cc3c(cc2[N+](=O)[O-])OCO3)[C@@H]1Cc1cc2c(cc1[N+](=O)[O-])OCO2` yielded an inhibition in vivo at 30 mg/kg of 54%.

The molecule `O=C1OC[C@@H](Cc2ccc3c(c2)OCO3)[C@@H]1Cc1ccc2c(c1)OCO2` came in with an inhibition in vivo at 30 mg/kg of 63%.

For `OC1OC[C@@H](Cc2ccc3c(c2)OCO3)[C@@H]1Cc1ccc2c(c1)OCO2` (some centres undefined), the inhibition in vivo at 30 mg/kg came to 53%.
